The test system of assay [1] is IRF pathway, THP1-Dual™ cells. Description: STING reporter assay in THP1-Dual cells, IRF pathway (Lucia luciferase, QUANTI-Luc). Type of assay: cell-based, human. Conditions: THP1-Dual cells, 10% human plasma, 20 hours, Lucia luciferase, 100% activation = 100 μM cGAMP, read-out: IRF (EC50 μM). An excerpt: (§1) THP1-Dual™ cells were derived from the human THP-1 monocyte cell line by stable integration of two inducible reporter constructs. To this end, THP1-Dual™ cells allow the simultaneous study of the NF-κB pathway, by monitoring the activity of SEAP, and the IRF pathway by assessing the activity of a secreted luciferase (Lucia). Both reporter proteins are readily measurable in the cell culture supernatant when using QUANTI-Blue™, a SEAP detection reagent, and QUANTI-Luc™, a luciferase detection reagent.
(§2) THP1-Dual™ cells induce the activation of NF-κB in response to STING agonists. They also trigger the IRF pathway upon stimulation with STING agonists, such as cGAMP. Here, the THP-1-Dual cells were used to assess STING specific binders for function on the cellular level.
(§3) Serial dilutions of compounds in DMSO were added to low volume 384 well plates at 100 nl/well using an ECHO acoustic dispenser (Labcyte, model 550) to achieve final starting concentration of 100 μM in cell suspension. […] One column of the plate was reserved for treatment with cGAMP at 100 μM for 100% activation calculation and one column for no treatment (DMSO only) for baseline activation. Plates were then incubated in 37° C. incubator at 5% CO2 for 20 hours.
(§4) Plates were read on the Envision (Perkin Elmer) at 620 nm wavelength (OD620). In the luciferase assay, 5 μl of Quantiluc (Invivogen, Rep-qlc2) is added to white 384 well plates seeded with THP1 cells and read at 5 minutes on the Envision (Perkin Elmer) using a luminescence protocol (RLU). 100% activation was determined by value (RLU) of THP-1 Dual STING cells stimulated with 100 μM cGAMP (Invivogen, cat #TLRL-NACGA23-5).
In general terms: Reporter assays use an easily measured gene product as a stand-in for the process of interest.

Assay [2] has as its system NF-κB pathway, THP1-Dual™ cells. Description: STING reporter assay in THP1-Dual cells, NF-κB pathway (SEAP, QUANTI-Blue). Type of assay: cell-based, human. Conditions: THP1-Dual cells, 10% human plasma, 20 hours, SEAP, 100% activation = 100 μM cGAMP, read-out: NFkB (EC50 μM).
Excerpt: as §1, §2, §3, §4

Where two headings read alike, the source gives them in different places. Some results are limits rather than exact numbers.

Usually EC50 stands for the concentration needed to bring the measured effect to its halfway point. Turning to `COC(=O)c1cc(Br)cc2cc(CN3Cc4ccncc4C3=O)oc12` [Example 82, Methyl 5-bromo-2-((3-oxo-1,3-dihydro-2H-pyrrolo[3,4-c]pyridin-2-yl)methyl)benzofuran-7-carboxylate], the EC50 worked out at 27 µM in assay [1] (Homo sapiens, THP1-Dual, 20 h) and 20 µM in assay [2] (Homo sapiens, THP1-Dual, 20 h).
`Cc1cc(C(=O)O)c2oc(C(C)NC(=O)c3cnn4cccnc34)cc2c1` (racemic) [EXAMPLE 161, 5-Methyl-2-(1-(pyrazolo[1,5-a]pyrimidine-3-carboxamido)ethyl)benzofuran-7-carboxylic acid (racemic)]: the EC50 in assay [1] (Homo sapiens, THP1-Dual, 20 h) stood at 108 µM; in assay [2] (Homo sapiens, THP1-Dual, 20 h) it was 138 µM.
With `CC(NC(=O)c1cnn2cccnc12)c1cc2cc(F)cc(C(=O)OCC(F)(F)F)c2o1` (single isomer, unassigned) [EXAMPLE 327, 2,2,2-Trifluoroethyl 5-fluoro-2-(1-(pyrazolo[1,5-a]pyrimidine-3-carboxamido)ethyl)benzofuran-7-carboxylate], the EC50 was 73 µM in assay [1] and 79 µM in assay [2].
As to `COC(=O)c1cc(Cl)cc2cc(CNC(=O)c3cnc4cccnn34)oc12` [Example 52, Methyl 5-chloro-2-((imidazo[1,2-b]pyridazine-3-carboxamido)methyl) benzofuran-7-carboxylate], the EC50 stood at 8 µM in assay [1] and 9.8 µM in assay [2].
For `COC(=O)c1cc(Cl)cc2cc(CNC(=O)c3cnn4c(C)ccnc34)oc12` [Example 56, Methyl 5-chloro-2-((7-methylpyrazolo[1,5-a]pyrimidine-3-carboxamido)methyl) benzofuran-7-carboxylate], the EC50 in assay [1] was 30 µM; in assay [2] it was greater than 33 µM.
Take `Cc1cc(C(=O)O[C@@H](C)C(F)(F)F)c2oc(CNC(=O)c3cnn4cccnc34)cc2c1` [EXAMPLE 272, (S)-1,1,1-Trifluoropropan-2-yl 5-methyl-2-((pyrazolo[1,5-a]pyrimidine-3-carboxamido)methyl)-benzofuran-7-carboxylate]: the EC50 in assay [1] (Homo sapiens, THP1-Dual, 20 h) was 2.2 µM; in assay [2] (Homo sapiens, THP1-Dual, 20 h), 2.2 µM.
As to `O=C(OC1CCCCC1)c1cc(Cl)cc2cc(CNC(=O)c3cnn4cccnc34)oc12` [EXAMPLE 244, Cyclohexyl 5-chloro-2-((pyrazolo[1,5-a]pyrimidine-3-carboxamido)methyl)benzofuran-7-carboxylate], the EC50 worked out at 2 µM in assay [1] (Homo sapiens, THP1-Dual, 20 h) and 1.9 µM in assay [2] (Homo sapiens, THP1-Dual, 20 h).
Consider `Cc1cc(C(=O)OCC(F)(F)F)c2oc(CNC(=O)c3cnn4cccnc34)cc2c1` [EXAMPLE 377, 2,2,2-Trifluoroethyl 5-methyl-2-((pyrazolo[1,5-a]pyrimidine-3-carboxamido)methyl)benzofuran-7-carboxylate], for which the EC50 was 0.4 µM in assay [1] (Homo sapiens, THP1-Dual, 20 h) and 0.3 µM in assay [2] (Homo sapiens, THP1-Dual, 20 h).
For `C[C@@H](OC(=O)c1cc(Cl)cc2cc(CNC(=O)c3cncc4[nH]cnc34)oc12)C(F)(F)F` [EXAMPLE 265, (R)-1,1,1-Trifluoropropan-2-yl 2-((3H-imidazo[4,5-c]pyridine-7-carboxamido)methyl)-5-chlorobenzofuran-7-carboxylate], in that order: 0.84 µM and 0.82 µM.
Regarding `COC(OC(=O)c1cc(C#N)cc2cc(CNC(=O)c3cnn4cccnc34)oc12)C(F)(F)F` (single isomer, unassigned) [EXAMPLE 347, 2,2,2-Trifluoro-1-methoxyethyl 5-cyano-2-((pyrazolo[1,5-a]pyrimidine-3-carboxamido)methyl)benzofuran-7-carboxylate], the EC50 in assay [1] (Homo sapiens, THP1-Dual, 20 h) is 3.3 µM; in assay [2] (Homo sapiens, THP1-Dual, 20 h), 2.3 µM.
Consider `CC(OC(=O)c1cc(C(F)(F)F)cc2cc(CNC(=O)c3cnn4cccnc34)oc12)C(F)(F)F` (single isomer, unassigned) [EXAMPLE 349, 1,1,1-Trifluoropropan-2-yl 2-((pyrazolo[1,5-a]pyrimidine-3-carboxamido)methyl)-5-(trifluoromethyl)benzofuran-7-carboxylate], for which the EC50 in assay [1] worked out at 3.8 µM; in assay [2] it was 3.5 µM.
Regarding `O=C(OCC(F)(F)F)c1ccc(F)c2cc(Cn3cnc4ccncc4c3=O)oc12` [EXAMPLE 356], the EC50 came to 13 µM in assay [1] (Homo sapiens, THP1-Dual, 20 h) and 18 µM in assay [2] (Homo sapiens, THP1-Dual, 20 h).

The values above are taken from US12673954B2 (BRISTOL-MYERS SQUIBB COMPANY, priority 2021, dated 2026).
